Laboratory results reported in patent publication US20250263370A1 (Tay Therapeutics Limited, priority 2022, published 2025).
“And” between values parts separate entries of the source, which are not always exact repeats. Identical values can stand only once.

System: collagen-induced arthritis
Assay: Collagen-induced arthritis (CIA) model in rats: body weight, paw volume, clinical scores, clinical observations; on Average detailed clinical score, left hind limb: key of the grades not given here; on Average detailed clinical score, right hind limb: key of the grades not given here; on Detailed Clinical Scores, left forelimb: key of the grades not given here; on Detailed Clinical Scores, left hind limb: key of the grades not given here; on Detailed Clinical Scores, right forelimb: key of the grades not given here; on Detailed Clinical Scores, right hind limb: key of the grades not given here; on Detailed Clinical Scores, score: key of the grades not given here; on Detailed Clinical Scores: left forelimb: key of the grades not given here; on Detailed Clinical Scores: left hind limb: key of the grades not given here; on Detailed Clinical Scores: right forelimb: key of the grades not given here; on Detailed Clinical Scores: right hind limb: key of the grades not given here; on Detailed Clinical Scores: score: key of the grades not given here; on Mean overall clinical score ± SD: key of the grades not given here; on overall clinical score: key of the grades not given here
Details: for Average detailed clinical score, left forelimb / Average detailed clinical score, left hind limb / Average detailed clinical score, right forelimb / Average detailed clinical score, right hind limb / Average detailed clinical score, score / Mean overall clinical score ± SD / Detailed Clinical Scores, left forelimb / Detailed Clinical Scores, left hind limb / Detailed Clinical Scores, right forelimb / Detailed Clinical Scores, right hind limb / Detailed Clinical Scores, score / Overall clinical score / Detailed Clinical Scores: left forelimb / Detailed Clinical Scores: left hind limb / Detailed Clinical Scores: right forelimb / Detailed Clinical Scores: right hind limb / Detailed Clinical Scores: score: CIA rats; for Detailed Clinical Scores, left forelimb / Detailed Clinical Scores, left hind limb / Detailed Clinical Scores, right forelimb / Detailed Clinical Scores, right hind limb / Detailed Clinical Scores, score / Detailed Clinical Scores: left forelimb / Detailed Clinical Scores: left hind limb / Detailed Clinical Scores: right forelimb / Detailed Clinical Scores: right hind limb / Detailed Clinical Scores: score: individual animals ID 1-8; for Overall clinical score: individual animals #1-8; for Mean animal paw volume ± SD: group mean; for Animal paw volume percent change: individual animals

SMILES: C[C@@H]1C[C@H]2[C@@H]3CCC4=CC(=O)C=C[C@]4(C)[C@@]3(F)[C@@H](O)C[C@]2(C)[C@@]1(O)C(=O)CO [dexamethasone]
- Average detailed clinical score, left forelimb (Day 13): 0.00
- Average detailed clinical score, left hind limb (Day 13): 0.00
- Average detailed clinical score, right forelimb (Day 13): 0.00
- Average detailed clinical score, right hind limb (Day 13): 0.00
- Average detailed clinical score, score (Day 13): 0.00
- Mean overall clinical score ± SD (Day 13): 0 ± 0
- Detailed Clinical Scores, left forelimb (Day 13): 0
- Detailed Clinical Scores, left hind limb (Day 13): 0
- Detailed Clinical Scores, right forelimb (Day 13): 0
- Detailed Clinical Scores, right hind limb (Day 13): 0
- Detailed Clinical Scores, score (Day 13): 0
- Overall clinical score (Day 13): 0
- Mean animal paw volume ± SD (Day 14, L paw): 1.27 mL
- Animal paw volume percent change (Day 14, L paw): −8.18% and −5.36% and 0.00% and −4.53% and −1.54% and −5.00% and −3.75% and −8.46%
- Mean animal paw volume ± SD (Day 14, R paw): 1.26 mL
- Animal paw volume percent change (Day 14, R paw): −5.62% and −2.70% and 0.00% and −8.92% and −2.33% and −7.72% and −5.17% and −8.06%
- Average detailed clinical score, left forelimb (Day 14): 0.00
- Average detailed clinical score, left hind limb (Day 14): 0.00
- Average detailed clinical score, right forelimb (Day 14): 0.00
- Average detailed clinical score, right hind limb (Day 14): 0.00
- Average detailed clinical score, score (Day 14): 0.00
- Mean overall clinical score ± SD (Day 14): 0 ± 0
- Detailed Clinical Scores, left forelimb (Day 14): 0
- Detailed Clinical Scores, left hind limb (Day 14): 0
- Detailed Clinical Scores, right forelimb (Day 14): 0
- Detailed Clinical Scores, right hind limb (Day 14): 0
- Detailed Clinical Scores, score (Day 14): 0
- Overall clinical score (Day 14): 0
- Mean animal paw volume ± SD (Day 15, L paw): 1.26 mL
- Animal paw volume percent change (Day 15, L paw): −8.92% and −7.28% and −2.17%
- Mean animal paw volume ± SD (Day 15, R paw): 1.26 mL
- Animal paw volume percent change (Day 15, R paw): −6.74% and −4.25% and −1.45%
- Average detailed clinical score, left forelimb (Day 15): 0.00
- Average detailed clinical score, left hind limb (Day 15): 0.00
- Average detailed clinical score, right forelimb (Day 15): 0.00
- Average detailed clinical score, right hind limb (Day 15): 0.00
- Average detailed clinical score, score (Day 15): 0.00
- Mean overall clinical score ± SD (Day 15): 0 ± 0
- Detailed Clinical Scores: left forelimb (Day 15): 0
- Detailed Clinical Scores: left hind limb (Day 15): 0
- Detailed Clinical Scores: right forelimb (Day 15): 0
- Detailed Clinical Scores: right hind limb (Day 15): 0
- Detailed Clinical Scores: score (Day 15): 0
- Overall clinical score (Day 15): 0
- Mean animal paw volume ± SD (Day 18, L paw): 1.29 mL
- Animal paw volume percent change (Day 18, L paw): −5.20% and −6.51% and 4.33%
- Mean animal paw volume ± SD (Day 18, R paw): 1.29 mL
- Animal paw volume percent change (Day 18, R paw): −4.49% and −4.63% and 4.36%
- Average detailed clinical score, left forelimb (Day 18): 0.00
- Average detailed clinical score, left hind limb (Day 18): 0.00
- Average detailed clinical score, right forelimb (Day 18): 0.00
- Average detailed clinical score, right hind limb (Day 18): 0.00
- Average detailed clinical score, score (Day 18): 0.00
- Mean overall clinical score ± SD (Day 18): 0 ± 0
- Detailed Clinical Scores: left forelimb (Day 18): 0
- Detailed Clinical Scores: left hind limb (Day 18): 0
- Detailed Clinical Scores: right forelimb (Day 18): 0
- Detailed Clinical Scores: right hind limb (Day 18): 0
- Detailed Clinical Scores: score (Day 18): 0
- Overall clinical score (Day 18): 0
- Mean animal paw volume ± SD (Day 19, L paw): 1.29 mL
- Animal paw volume percent change (Day 19, L paw): −5.20% and −6.90%
- Mean animal paw volume ± SD (Day 19, R paw): 1.28 mL
- Animal paw volume percent change (Day 19, R paw): −5.24% and −6.18%
- Average detailed clinical score, left forelimb (Day 19): 0.00
- Average detailed clinical score, left hind limb (Day 19): 0.00
- Average detailed clinical score, right forelimb (Day 19): 0.00
- Average detailed clinical score, right hind limb (Day 19): 0.00
- Average detailed clinical score, score (Day 19): 0.00
- Mean overall clinical score ± SD (Day 19): 0 ± 0
- Detailed Clinical Scores: left forelimb (Day 19): 0
- Detailed Clinical Scores: left hind limb (Day 19): 0
- Detailed Clinical Scores: right forelimb (Day 19): 0
- Detailed Clinical Scores: right hind limb (Day 19): 0
- Detailed Clinical Scores: score (Day 19): 0
- Overall clinical score (Day 19): 0
- Mean animal paw volume ± SD (Day 21, L paw): 1.28 mL
- Animal paw volume percent change (Day 21, L paw): −6.32% and −6.90%
- Mean animal paw volume ± SD (Day 21, R paw): 1.29 mL
- Animal paw volume percent change (Day 21, R paw): −5.99% and −6.18%
- Average detailed clinical score, left forelimb (Day 21): 0.00
- Average detailed clinical score, left hind limb (Day 21): 0.00
- Average detailed clinical score, right forelimb (Day 21): 0.00
- Average detailed clinical score, right hind limb (Day 21): 0.00
- Average detailed clinical score, score (Day 21): 0.00
- Mean overall clinical score ± SD (Day 21): 0 ± 0
- Detailed Clinical Scores: left forelimb (Day 21): 0
- Detailed Clinical Scores: left hind limb (Day 21): 0
- Detailed Clinical Scores: right forelimb (Day 21): 0
- Detailed Clinical Scores: right hind limb (Day 21): 0
- Detailed Clinical Scores: score (Day 21): 0
- Overall clinical score (Day 21): 0
